Source: patent US8106055B2, “Substituted amide compounds” (Gruenenthal GmbH, priority 2007, dated 2012)
Read-outs that look alike come from different tables or passages of the source.

Experiments:
[1] = target: T1, serotonin (5-HT) reuptake (Rattus norvegicus, UniProt P31652); experiment: Inhibition of serotonin (5HT) reuptake in synaptosomes from rat brain; assay type: biochemical; conditions: test concentration of 10 μM; for inhibition at 10 µM: read-out: 5-HT (inhibition of reuptake of serotonin, % inhibition)
T1 construct: synaptosomes are freshly isolated from areas of the rat brain; from tissue; host or cells: rat brain synaptosomes (P2 fraction)
T1 sequence (P31652 whole entry): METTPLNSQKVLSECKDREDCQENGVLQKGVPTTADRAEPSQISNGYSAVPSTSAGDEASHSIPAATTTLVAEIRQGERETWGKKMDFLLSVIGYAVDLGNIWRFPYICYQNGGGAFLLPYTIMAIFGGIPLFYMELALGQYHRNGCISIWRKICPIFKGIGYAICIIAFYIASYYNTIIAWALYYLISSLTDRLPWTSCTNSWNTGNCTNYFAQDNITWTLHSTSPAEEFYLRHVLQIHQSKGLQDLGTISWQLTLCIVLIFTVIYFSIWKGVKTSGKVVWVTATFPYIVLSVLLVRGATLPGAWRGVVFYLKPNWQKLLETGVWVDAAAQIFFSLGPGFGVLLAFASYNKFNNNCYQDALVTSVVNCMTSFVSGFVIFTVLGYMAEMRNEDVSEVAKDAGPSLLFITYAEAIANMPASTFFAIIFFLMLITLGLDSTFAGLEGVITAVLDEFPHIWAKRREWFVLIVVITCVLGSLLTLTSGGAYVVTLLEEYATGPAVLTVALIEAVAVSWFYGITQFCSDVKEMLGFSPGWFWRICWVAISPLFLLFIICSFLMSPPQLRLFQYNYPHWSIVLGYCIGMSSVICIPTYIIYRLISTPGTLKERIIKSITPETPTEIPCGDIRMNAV
Method: Binding data of the compounds on the μ opioid receptor and data on the inhibition of reuptake of serotonin (5-HT) are given in Table 1. The data for the μ receptor were measured at a test concentration of 1 μM, and those for the serotonin reuptake at 10 μM. The values are stated in % inhibition.
Inhibition of Serotonin (5HT) Reuptake
In order to be able to carry out these in vitro studies, synaptosomes are freshly isolated from areas of the rat brain. In each case a so-called “P2” fraction prepared in accordance with the instructions of Gray and Whittaker (E. G. Gray and V. P. Whittaker (1962) J. Anat. 76, 79-88) is prepared. For the NA uptake, these vesicular particles are isolated from the hypothalamus of male rat brains.
A detailed description of the method can be found in the literature (M. Ch. Frink, H.-H. Hennies, W. Englberger, M. Haurand and B. Wilffert (1996) Arzneim.-Forsch./Drug Res. 46 (III), 11, 1029-1036).

human μ opiate receptor = target: T2, human μ opiate receptor (Homo sapiens, UniProt P35372); experiment: Affinity for the human μ opiate receptor ([3H]-naloxone displacement, CHO-K1 receptor membrane preparation, SPA); assay type: binding
T2 construct: purchased PerkinElmer Life Sciences, Zaventem, Belgium RB-HOM; host or cells: CHO-K1 cells (membrane preparation)
T2 sequence (P35372 whole entry): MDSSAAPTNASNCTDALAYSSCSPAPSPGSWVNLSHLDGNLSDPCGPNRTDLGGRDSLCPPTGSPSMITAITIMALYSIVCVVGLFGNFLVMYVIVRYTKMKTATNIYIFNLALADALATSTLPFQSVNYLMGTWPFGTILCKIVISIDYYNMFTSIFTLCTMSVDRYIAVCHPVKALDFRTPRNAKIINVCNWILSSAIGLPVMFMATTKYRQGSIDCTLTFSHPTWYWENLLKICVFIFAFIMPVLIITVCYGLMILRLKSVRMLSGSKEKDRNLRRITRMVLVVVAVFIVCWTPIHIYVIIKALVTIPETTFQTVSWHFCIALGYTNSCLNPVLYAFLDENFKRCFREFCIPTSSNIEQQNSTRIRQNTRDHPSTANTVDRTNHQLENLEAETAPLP
Method in brief: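 Test compounds, 1 nmol/l [3H]-naloxone and CHO-K1 membranes bearing the human μ opiate receptor are combined with WGA-SPA beads. After 90 minutes at room temperature, plates are centrifuged and radioactivity counted. Specific-binding inhibition at 1 μmol/l is given in percent.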

[2] = target: T3, human bradykinin 1 receptor (B1R) (Homo sapiens, UniProt P46663); experiment: Functional investigation on the human bradykinin 1 receptor (B1R), Ca2+ FLIPR assay in CHO K1 hB1R cells; assay type: cell-based; conditions: test substance 10 μM; for inhibition at 10 µM: CHO-K1, B1R antagonism human, read-out: B1R Ant. h [10 μM] % Inhibition
T3 construct: expressed in transfected cells; host or cells: CHO K1 cells
T3 sequence (P46663 1-353): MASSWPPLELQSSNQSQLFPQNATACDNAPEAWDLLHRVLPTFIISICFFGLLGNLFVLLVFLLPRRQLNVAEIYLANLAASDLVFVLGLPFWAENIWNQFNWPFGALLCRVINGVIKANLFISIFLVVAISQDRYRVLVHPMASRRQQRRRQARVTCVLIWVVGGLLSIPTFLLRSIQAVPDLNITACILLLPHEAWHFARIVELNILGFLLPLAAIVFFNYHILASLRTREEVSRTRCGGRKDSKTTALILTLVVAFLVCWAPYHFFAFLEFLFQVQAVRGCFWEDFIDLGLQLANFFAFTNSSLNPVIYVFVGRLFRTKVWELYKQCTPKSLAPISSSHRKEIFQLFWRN
Method in brief: (§1)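 Fluo-4 Ca2+ readout, peak fluorescence. Stable CHO K1 transfectants; compound pre-incubated 10-20 min, then EC80 agonist—Lys-Des-Arg9-BK for hB1R, Des-Arg9-BK for rB1R. % inhibition vs maximal inhibition; IC50 from multiple concentrations, duplicate/triplicate, ≥2 independent runs.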

[3] = target: T4, bradykinin 1 receptor (B1R) of the rat (Rattus norvegicus, UniProt P97583); experiment: Functional investigation on the rat bradykinin 1 receptor (B1R), Ca2+ FLIPR assay in CHO K1 rB1R cells; assay type: cell-based; conditions: test substance 10 μM; for inhibition at 10 µM: CHO-K1, B1R antagonism rat, read-out: B1R Ant. r [10 μM] % Inhibition
T4 construct: expressed in transfected cells; host or cells: CHO K1 cells
T4 sequence (P97583 1-337): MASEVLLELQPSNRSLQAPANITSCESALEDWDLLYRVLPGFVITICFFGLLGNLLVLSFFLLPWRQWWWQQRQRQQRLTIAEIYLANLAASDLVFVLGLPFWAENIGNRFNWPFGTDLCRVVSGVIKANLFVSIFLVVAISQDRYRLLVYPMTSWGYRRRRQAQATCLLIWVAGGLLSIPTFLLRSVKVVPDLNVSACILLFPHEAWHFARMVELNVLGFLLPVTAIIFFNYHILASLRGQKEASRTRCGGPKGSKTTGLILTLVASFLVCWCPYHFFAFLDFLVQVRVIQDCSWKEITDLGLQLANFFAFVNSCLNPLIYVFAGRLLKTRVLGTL
Method in brief: as §1

[4] = 1.5 h, Table 3, to be read in the same way as Table 1, test concentration 1 μM, read-out: μ
[5] = % inhibition compared with the maximum achievable inhibition

SMILES: CC(Oc1ccccc1)C(=O)NCC1CCC(C(c2ccc(Cl)cc2)N(C)C)CC1 (single isomer, unassigned) [Example 237]
- 5-HT (inhibition of reuptake of serotonin, % inhibition) ([1]; 10 µM): 52%
- μ (binding on the μ opioid receptor, % inhibition) (human μ opiate receptor; test concentration of 1 μM): 81%

SMILES: CN(C)C(c1ccccc1)C1CCC(CCNC(=O)COCc2ccccc2)CC1 (stereo not drawn) [Example 134, 2-(benzyloxy)-N-(2-(4-((dimethylamino)(phenyl)-methyl)cyclohexyl)ethyl)acetamide]
- inhibition at 10 µM [1]: 67%

SMILES: CC(Oc1ccccc1)C(=O)NCC1CCC(C(c2ccc(Cl)cc2)N(C)C)CC1 (single isomer, unassigned) [Example 238]
- 5-HT (inhibition of reuptake of serotonin, % inhibition) ([1]; 10 µM): 38%
- μ (binding on the μ opioid receptor, % inhibition) (human μ opiate receptor; test concentration of 1 μM): 81%

SMILES: CC(Oc1ccccc1)C(=O)NC1CCC(C(c2cccc(F)c2)N(C)C)CC1 (stereo not drawn) [Example 153, N-(4-((dimethylamino)(3-fluorophenyl)methyl)cyclohexyl)-2-phenoxypropanamide]
- inhibition at 10 µM [1]: 27%

SMILES: CC(Oc1ccccc1)C(=O)NCC1CCC(C(c2ccc(F)cc2)N(C)C)CC1 (stereo not drawn) [Example 236]
- 5-HT (inhibition of reuptake of serotonin, % inhibition) [1]: 63%
- μ (binding on the μ opioid receptor, % inhibition) (human μ opiate receptor; test concentration of 1 μM): 81%

SMILES: CC(Oc1ccccc1)C(=O)NCC1CCC(C(c2cccc(F)c2)N(C)C)CC1 (stereo not drawn) [Example 79, N-((4-((dimethylamino)(3-fluorophenyl)methyl)cyclohexyl)methyl)-2-phenoxypropanamide]
- 5-HT (inhibition of reuptake of serotonin, % inhibition) ([1]; 10 µM): 64%

SMILES: CC(Oc1ccccc1)C(=O)NC1CCC(C(CCc2ccccc2)N(C)C)CC1 (stereo not drawn) [Example 545]
- 5-HT (inhibition of reuptake of serotonin, % inhibition) ([1]; 10 µM): 52%
- μ (binding on the μ opioid receptor, % inhibition) (human μ opiate receptor; test concentration of 1 μM, 1 µM): 30%

SMILES: CN(C)C(c1ccc(Cl)cc1)C1CCC(CCNC(=O)COCc2ccccc2)CC1 (stereo not drawn) [Example 482]
- 5-HT (inhibition of reuptake of serotonin, % inhibition) [1]: 55%
- μ (binding on the μ opioid receptor, % inhibition) (human μ opiate receptor; test concentration of 1 μM): 47%

SMILES: CN(C)C(c1ccc(F)cc1)C1CCC(NC(=O)COCc2ccccc2)CC1 (stereo not drawn) [Example 529]
- 5-HT (inhibition of reuptake of serotonin, % inhibition) [1]: 59%
- μ (binding on the μ opioid receptor, % inhibition) (human μ opiate receptor; test concentration of 1 μM): 37%

SMILES: CC(Oc1ccccc1)C(=O)NCCC1CCC(C(c2cccs2)N(C)C)CC1 (stereo not drawn) [Example 315]
- 5-HT (inhibition of reuptake of serotonin, % inhibition) [1]: 61%
- μ (binding on the μ opioid receptor, % inhibition) (human μ opiate receptor; test concentration of 1 μM): 72%

SMILES: CC(Oc1ccccc1)C(=O)NCCC1CCC(C(c2ccc(F)cc2)N(C)C)CC1 (stereo not drawn) [Example 455]
- 5-HT (inhibition of reuptake of serotonin, % inhibition) [1]: 74%
- μ (binding on the μ opioid receptor, % inhibition) (human μ opiate receptor; test concentration of 1 μM): 51%

SMILES: COC(=O)C(=O)NCCC1CCC(C(c2ccccc2)N(C)C)CC1 (stereo not drawn) [Example 579]
- 5-HT (inhibition of reuptake of serotonin, % inhibition) [1]: 59%
- μ (binding on the μ opioid receptor, % inhibition) (human μ opiate receptor; test concentration of 1 μM): 11%

SMILES: CC(Oc1ccccc1)C(=O)NCC1CCC(C(c2cccs2)N(C)C)CC1 (stereo not drawn) [Example 2, N-((4-((dimethylamino)(thiophen-2-yl)methyl)cyclohexyl)methyl)-2-phenoxypropanamide]
- inhibition at 10 µM [1]: 69%

SMILES: CC(Oc1ccccc1)C(=O)NCC1CCC(C(c2cccc(F)c2)N(C)C)CC1 (stereo not drawn) [Example 108, N-((4-((dimethylamino)(3-fluorophenyl)methyl)cyclohexyl)methyl)-2-phenoxypropanamide]
- inhibition at 10 µM [1]: 63%
- inhibition at 1 µM (human μ opiate receptor; test concentration of 1 μM, read-out: μ (binding on the μ opioid receptor, % inhibition)): 91%

SMILES: CC(Oc1ccccc1)C(=O)NCC1CCC(C(c2cccc(F)c2)N(C)C)CC1 (stereo not drawn) [Example 122, N-((4-((dimethylamino)(3-fluorophenyl)methyl)cyclohexyl)methyl)-2-phenoxypropanamide]
- 5-HT (inhibition of reuptake of serotonin, % inhibition) ([1]; 10 µM): 57%

SMILES: CC(Oc1ccccc1)C(=O)NCC1CCC(C(c2ccccc2)N(C)C)CC1 (stereo not drawn) [Example 50, N-((4-((dimethylamino)(phenyl)methyl)cyclohexyl)methyl)-2-phenoxypropanamide]
- inhibition at 10 µM [1]: 65%

SMILES: CN(CCOCC(=O)NCC1CCC(C(c2ccccc2)N2CCOCC2)CC1)S(=O)(=O)c1c(Cl)cccc1Cl (stereo not drawn) [Example 706, 2-(2-(2,6-dichloro-N-methylphenylsulfonamido)ethoxy)-N-((4-(morpholino(phenyl)methyl)cyclohexyl)methyl)acetamide]
- inhibition at 10 µM ([2]; Ca2+ FLIPR, CHO K1 hB1R cells): 77%
- inhibition at 10 µM ([3]; Ca2+ FLIPR, CHO K1 rB1R cells): 52%
- inhibition at 1 µM (human μ opiate receptor; [4]): 7%

SMILES: CN(CCOCC(=O)NCC1CCC(C(CCc2ccccc2)N2CCCC2)CC1)S(=O)(=O)c1ccc(Cl)cc1Cl (stereo not drawn) [Example 717, 2-(2-(2,4-dichloro-N-methylphenylsulfonamido)ethoxy)-N-((4-(3-phenyl-1-(pyrrolidin-1-yl)propyl)cyclohexyl)methyl)acetamide]
- inhibition at 10 µM ([2]; Ca2+ FLIPR, CHO K1 hB1R cells): 100%
- inhibition at 10 µM ([3]; Ca2+ FLIPR, CHO K1 rB1R cells): 88%
- inhibition at 1 µM (human μ opiate receptor; [4]): 22%

SMILES: CN(CCOCC(=O)NCC1CCC(C(c2ccccc2)N2CCCC2)CC1)S(=O)(=O)c1ccc(Cl)cc1Cl (stereo not drawn) [Example 641, 2-(2-(2,4-dichloro-N-methylphenylsulfonamido)ethoxy)-N-((4-(phenyl(pyrrolidin-1-yl)methyl)cyclohexyl)methyl)acetamide]
- inhibition at 10 µM ([2]; Ca2+ FLIPR, CHO K1 hB1R cells): 96%
- inhibition at 10 µM ([3]; Ca2+ FLIPR, CHO K1 rB1R cells): 45%
- inhibition at 1 µM (human μ opiate receptor; [4]): 66%

SMILES: CN(CCOCC(=O)NC1CCC(C(c2ccccc2)N2CCCC2)CC1)S(=O)(=O)c1c(Cl)cccc1Cl (stereo not drawn) [Example 634, 2-(2-(2,6-dichloro-N-methylphenylsulfonamido)ethoxy)-N-(4-(phenyl(pyrrolidin-1-yl)methyl)cyclohexyl)acetamide]
- inhibition at 10 µM ([2]; Ca2+ FLIPR, CHO K1 hB1R cells): 92%
- inhibition at 10 µM ([3]; Ca2+ FLIPR, CHO K1 rB1R cells): 38%
- inhibition at 1 µM (human μ opiate receptor; [4]): 68%

SMILES: CN1CCN(C(Cc2ccccc2)C2CCN(C(=O)COCC3CCc4ccccc4N3S(=O)(=O)c3ccc(Cl)c(Cl)c3)CC2)CC1 (stereo not drawn) [Example 812, 2-((1-(3,4-dichlorophenylsulfonyl)-1,2,3,4-tetrahydroquinolin-2-yl)methoxy)-1-(4-(1-(4-methylpiperazin-1-yl)-2-phenylethyl)piperidin-1-yl)ethanone]
- inhibition at 10 µM [2, 5]: 105%
- inhibition at 10 µM [3, 5]: 98%
- inhibition at 1 µM (human μ opiate receptor; [4]): 37%

SMILES: CC(Oc1ccccc1)C(=O)NC1CCC(C(c2ccccc2)N(C)C)CC1 (stereo not drawn) [Example 181, N-(4-((dimethylamino)(phenyl)methyl)cyclohexyl)-2-phenoxypropanamide]
- inhibition at 10 µM [1]: 46%

SMILES: COc1cc(C)c(S(=O)(=O)N2CCCC(OCC(=O)NCC3CCC(C(CCc4ccccc4)N4CCCC4)CC3)C2)c(C)c1 (stereo not drawn) [Example 731, 2-(1-(4-methoxy-2,6-dimethylphenylsulfonyl)piperidin-3-yloxy)-N-((4-(3-phenyl-1-(pyrrolidin-1-yl)propyl)cyclohexyl)methyl)acetamide]
- inhibition at 10 µM ([2]; Ca2+ FLIPR, CHO K1 hB1R cells): 101%
- inhibition at 10 µM ([3]; Ca2+ FLIPR, CHO K1 rB1R cells): 80%
- inhibition at 1 µM (human μ opiate receptor; [4]): 49%

SMILES: O=C(COC1CCCN(S(=O)(=O)c2c(Cl)cc(Cl)cc2Cl)C1)NC1CCC(C(CCc2ccccc2)N2CCOCC2)CC1 (stereo not drawn) [Example 672, N-(4-(1-morpholin-3-phenylpropyl)cyclohexyl)-2-(1-(2,4,6-trichlorophenylsulfonyl)piperidin-3-yloxy)acetamide]
- B1R Ant. h [10 μM] % Inhibition ([2]; B1R antagonism human, Ca2+ FLIPR, CHO K1 hB1R cells): 18%
- B1R Ant. r [10 μM] % Inhibition ([3]; B1R antagonism rat, Ca2+ FLIPR, CHO K1 rB1R cells): 11%
- μ (human μ opiate receptor; Table 3, to be read in the same way as Table 1, test concentration 1 μM): 16 % inhibition
